Data on 29 molecules can be found in patent US20230357269A1 (LES LABORATOIRES SERVIER, priority 2020, published 2023).

Structures are written as SMILES.

Chain of human recombinant LRRK2 protein (Q5S007 whole entry): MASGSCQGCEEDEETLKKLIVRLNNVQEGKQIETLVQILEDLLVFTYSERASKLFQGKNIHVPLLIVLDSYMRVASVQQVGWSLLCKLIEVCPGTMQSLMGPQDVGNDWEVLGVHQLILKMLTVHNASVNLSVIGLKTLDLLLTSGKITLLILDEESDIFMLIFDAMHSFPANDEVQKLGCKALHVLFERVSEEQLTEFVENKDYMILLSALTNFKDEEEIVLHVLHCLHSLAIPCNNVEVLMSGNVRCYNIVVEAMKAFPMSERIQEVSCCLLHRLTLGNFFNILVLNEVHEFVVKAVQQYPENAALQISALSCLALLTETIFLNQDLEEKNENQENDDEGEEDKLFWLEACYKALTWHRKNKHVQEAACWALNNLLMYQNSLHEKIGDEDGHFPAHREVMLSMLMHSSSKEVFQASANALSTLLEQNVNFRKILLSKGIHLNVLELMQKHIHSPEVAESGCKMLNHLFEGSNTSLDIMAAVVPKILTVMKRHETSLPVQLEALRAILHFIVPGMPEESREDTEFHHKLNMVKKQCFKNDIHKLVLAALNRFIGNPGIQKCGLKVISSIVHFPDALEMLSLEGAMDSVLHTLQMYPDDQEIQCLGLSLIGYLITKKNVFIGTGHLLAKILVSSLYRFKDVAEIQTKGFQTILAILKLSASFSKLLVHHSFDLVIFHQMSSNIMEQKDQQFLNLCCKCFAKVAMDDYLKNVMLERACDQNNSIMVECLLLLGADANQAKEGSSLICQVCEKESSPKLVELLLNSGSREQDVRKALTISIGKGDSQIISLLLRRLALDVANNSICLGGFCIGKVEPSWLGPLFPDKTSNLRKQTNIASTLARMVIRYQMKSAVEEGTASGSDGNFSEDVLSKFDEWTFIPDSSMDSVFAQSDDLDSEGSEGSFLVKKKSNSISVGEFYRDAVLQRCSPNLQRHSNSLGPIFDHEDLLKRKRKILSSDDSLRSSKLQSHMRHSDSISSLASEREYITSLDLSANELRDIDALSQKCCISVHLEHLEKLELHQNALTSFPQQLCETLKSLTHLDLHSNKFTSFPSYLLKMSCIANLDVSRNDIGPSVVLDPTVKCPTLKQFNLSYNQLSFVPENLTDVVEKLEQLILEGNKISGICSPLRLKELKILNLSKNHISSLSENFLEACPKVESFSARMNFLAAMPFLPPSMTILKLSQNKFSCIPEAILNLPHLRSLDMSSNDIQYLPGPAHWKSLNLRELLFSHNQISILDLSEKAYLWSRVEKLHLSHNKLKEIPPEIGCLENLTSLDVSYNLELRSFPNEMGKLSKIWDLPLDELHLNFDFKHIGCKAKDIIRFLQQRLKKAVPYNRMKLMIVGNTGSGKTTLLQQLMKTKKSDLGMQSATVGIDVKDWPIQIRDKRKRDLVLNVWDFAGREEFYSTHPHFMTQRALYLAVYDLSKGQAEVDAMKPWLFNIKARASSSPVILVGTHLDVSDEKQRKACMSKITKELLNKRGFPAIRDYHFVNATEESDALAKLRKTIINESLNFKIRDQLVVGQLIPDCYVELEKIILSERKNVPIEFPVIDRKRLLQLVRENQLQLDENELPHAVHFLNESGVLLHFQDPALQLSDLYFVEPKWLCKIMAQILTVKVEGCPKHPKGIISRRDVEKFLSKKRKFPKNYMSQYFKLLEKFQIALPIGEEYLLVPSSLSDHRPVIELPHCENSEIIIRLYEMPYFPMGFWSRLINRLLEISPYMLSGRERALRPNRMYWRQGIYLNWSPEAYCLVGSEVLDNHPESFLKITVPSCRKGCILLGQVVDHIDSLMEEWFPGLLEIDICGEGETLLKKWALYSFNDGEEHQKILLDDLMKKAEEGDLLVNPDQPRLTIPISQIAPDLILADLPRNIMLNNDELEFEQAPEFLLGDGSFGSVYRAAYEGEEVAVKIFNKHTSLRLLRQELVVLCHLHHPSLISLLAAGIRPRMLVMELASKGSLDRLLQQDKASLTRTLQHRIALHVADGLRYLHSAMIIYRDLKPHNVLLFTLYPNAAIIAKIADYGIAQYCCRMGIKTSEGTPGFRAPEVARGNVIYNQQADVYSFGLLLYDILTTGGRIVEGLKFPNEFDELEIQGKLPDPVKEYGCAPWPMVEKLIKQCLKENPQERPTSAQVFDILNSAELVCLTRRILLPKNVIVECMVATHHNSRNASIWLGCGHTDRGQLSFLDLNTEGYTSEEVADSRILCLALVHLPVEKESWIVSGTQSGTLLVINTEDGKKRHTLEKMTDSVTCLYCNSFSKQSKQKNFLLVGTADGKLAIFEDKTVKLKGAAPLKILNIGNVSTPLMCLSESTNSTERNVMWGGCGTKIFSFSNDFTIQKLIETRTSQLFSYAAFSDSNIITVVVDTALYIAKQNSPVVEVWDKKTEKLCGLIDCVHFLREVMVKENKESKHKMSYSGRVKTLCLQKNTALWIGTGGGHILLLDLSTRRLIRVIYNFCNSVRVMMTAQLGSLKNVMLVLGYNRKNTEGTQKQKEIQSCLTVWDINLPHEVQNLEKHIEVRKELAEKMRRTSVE

The assay concerns the target human recombinant LRRK2 protein (Homo sapiens (Human), UniProt Q5S007). The assay is described as follows: LRRK2 Kinase Activity Assay (ADP-Glo). Format: biochemical. The settings on record: LRRK2 wt; LRRKtide peptide and ATP substrates; 1h-incubation at 37° C. The procedure:
LRRK2 Kinase reactions were carried out in 384-well white polystyrene plates in a final volume of 6 μl using ADP-Glo™ Kinase Assay kit (Promega Corp.). Compound and substrates (LRRKtide peptide and ATP) in assay buffer were first dispensed in wells. Kinase reaction was then started by the addition of human recombinant LRRK2 protein. After 1h-incubation at 37° C., the enzymatic reaction was stopped by the addition of 6 μl of ADP-Glo Reagent-1 and an additional 40-minutes incubation at 23° C. (residual ATP depletion). A final 30-minutes incubation after 12 μL reagent-2 addition (ADP to ATP conversion and luciferin/luciferase reaction) was performed before luminescent signal acquisition (EnVision™ multimode plate reader-PerkinElmer, Inc.). Data from 10 individual concentrations of tested compounds (N=2) were fitted (XLfit™-ID Business Solutions Ltd) to deliver IC50s (compound concentration leading to 50% inhibition of reference enzymatic activity).
The compounds are dissolved to 5 mM in DMSO. When needed, solutions are sonicated in a bath sonicator.
Table 2 provides the IC50 values of the compounds according to the invention, obtained using the above-mentioned kinase assay. Activities are represented as +++, ++ and +, having the following meanings: • +++ means IC50<10 nM • ++ means 10 nM≤IC50<100 nM • + means 100 nM≤IC50<1 μM.
On to `O=C1NCCCOc2ccc3[nH]nc(c3c2)-c2cc(cc(N3CCC(F)(F)C3)c2)CO1` [Example 21, 4-(3,3-difluoropyrrolidin-1-yl)-8,14-dioxa-10,19,20-triazatetracyclo[13.5.2.1^2,6.0^18,21]tricosa-1(20),2,4,6(23),15,17,21-heptaen-9-one], for which the IC50 was < 10 nM.

Turning to `CC1OC(=O)NCCCOc2ccc3[nH]nc(c3c2)-c2cccc1c2` (centres unmarked) [Example 22, 7-methyl-8,14-dioxa-10,19,20-triazatetracyclo[13.5.2.1^2,6.0^18,21]tricosa-1(20), 2,4,6(23),15,17,21-heptaen-9-one], the IC50 is < 10 nM.

In the case of `COCCC1CCN(c2cc3cc(c2)-c2n[nH]c4ccc(cc24)OCCCNC(=O)OC3)CC1` [Example 23, 4-[4-(2-methoxyethyl)piperidin-1-yl]-8,14-dioxa-10,19,20-triazatetracyclo[13.5.2.1^2,6.0^18,21]tricosa-1(20),2,4,6(23),15,17,21-heptaen-9-one], the IC50 was < 10 nM.

`O=C1NCCOc2ccc3[nH]nc(c3c2)-c2cccc(c2)CCO1` [Example 24, 9,14-dioxa-11,19,20-triazatetracyclo[13.5.2.1^2,6.0^18,21]tricosa-1(20),2,4, 6(23),15,17,21-heptaen-10-one]: the IC50 was 10 to 100 nM.

For the molecule `O=C1NCCCOc2ccc3[nH]nc(c3c2)-c2cc(cc(N3CC[C@@H](O)C3)c2)CO1` [Example 25, 4-[(3R)-3-hydroxypyrrolidin-1-yl]-8,14-dioxa-10,19,20-triazatetracyclo[13.5.2.1^2,6.0^18,21]tricosa-1(20),2,4,6(23),15,17,21-heptaen-9-one], the IC50 is < 10 nM.

With `COCCN(C)c1cc2cc(c1)-c1n[nH]c3ccc(cc13)OCCCNC(=O)OC2` [Example 26, 4-[(2-methoxyethyl)(methyl)amino]-8,14-dioxa-10,19,20-triazatetracyclo[13.5.2.1^2,6.0^18,21]tricosa-1(20),2,4,6(23),15,17,21-heptaen-9-one], the IC50 was < 10 nM.

Turning to `O=C1NCCCOc2ccc3[nH]nc(c3c2)-c2cc(Cl)cc(c2)CO1` [Example 27, 4-chloro-8,14-dioxa-10,19,20-triazatetracyclo[13.5.2.1^2,6.0^18,21]tricosa-1(20), 2,4,6(23),15,17,21-heptaen-9-one], the IC50 is < 10 nM.

Turning to `Cc1c(F)cc2cc1COC(=O)NCCCOc1ccc3[nH]nc-2c3c1` [Example 28, 4-fluoro-5-methyl-8,14-dioxa-10,19,20-triazatetracyclo[13.5.2.1^2,6.0^18,21]tricosa-1(20),2,4,6(23),15,17,21-heptaen-9-one], the IC50 was < 10 nM.

Consider `O=C1NCCCOc2ccc3[nH]nc(c3c2)-c2cc(F)c(F)c(c2)CO1` [Example 29, 4,5-difluoro-8,14-dioxa-10,19,20-triazatetracyclo[13.5.2.1^2,6.0^18,21]tricosa-1(20),2,4,6(23),15,17,21-heptaen-9-one], for which the IC50 is < 10 nM.

Regarding `CN1CCN(c2cc3cc(c2)-c2n[nH]c4ccc(cc24)OCCCNC(=O)OC3)CC1` [Example 31, 4-(4-methylpiperazin-1-yl)-8,14-dioxa-10,19,20-triazatetracyclo[13.5.2.1^2,6.0^18,21]tricosa-1(20),2,4,6(23),15,17,21-heptaen-9-one], the IC50 is < 10 nM.

For the molecule `COC1CN(c2cc3cc(c2)-c2n[nH]c4ccc(cc24)OCCCNC(=O)OC3)C1` [Example 32, 4-(3-methoxyazetidin-1-yl)-8,14-dioxa-10,19,20-triazatetracyclo[13.5.2.1^2,6.0^18,21]tricosa-1(20),2,4,6(23),15,17,21-heptaen-9-one], the IC50 was < 10 nM.

As to `N#CC1CCN(c2cc3cc(c2)-c2n[nH]c4ccc(cc24)OCCCNC(=O)OC3)CC1` [Example 33, 1-{9-oxo-8,14-dioxa-10,19,20-triazatetracyclo[13.5.2.1^2,6.0^18,21]tricosa-1(20),2,4,6(23),15,17,21-heptaen-4-yl}piperidine-4-carbonitrile], the IC50 was < 10 nM.

For the molecule `O=C1NCCCOc2ccc3[nH]nc(c3c2)-c2cc(cc(N3CCC(N4CCCC4)CC3)c2)CO1` [Example 34, 4-[4-(pyrrolidin-1-yl)piperidin-1-yl]-8,14-dioxa-10,19,20-triazatetracyclo[13.5.2.1^2,6.0^18,21]tricosa-1(20),2,4,6(23),15,17,21-heptaen-9-one], the IC50 was < 10 nM.

As for `O=C1NCCCOc2ccc3[nH]nc(c3c2)-c2cc(cc(N3CCC3)c2)CO1` [Example 35, 4-(azetidin-1-yl)-8,14-dioxa-10,19,20-triazatetracyclo[13.5.2.1^2,6.0^18,21]tricosa-1(20),2,4,6(23),15,17,21-heptaen-9-one], the IC50 was < 10 nM.

As for `O=C1NCCCOc2ccc3[nH]nc(c3c2)-c2cc(cc(N3CCCCC3)c2)CO1` [Example 36, 4-(piperidin-1-yl)-8,14-dioxa-10,19,20-triazatetracyclo[13.5.2.1^2,6.0^18,21]tricosa-1(20),2,4,6(23),15,17,21-heptaen-9-one], the IC50 is < 10 nM.

For the molecule `O=C1NCCCOc2ccc3[nH]nc(c3c2)-c2cc(cc(C3=CCOC3)c2)CO1` [Example 37, 4-(2,5-dihydrofuran-3-yl)-8,14-dioxa-10,19,20-triazatetracyclo[13.5.2.1^2,6.0^18,21]tricosa-1(20),2,4,6(23),15,17,21-heptaen-9-one], the IC50 was < 10 nM.

Take `O=C1NCCCOc2ccc3[nH]nc(c3c2)-c2cc(cc(N3CCC(N4CCOCC4)CC3)c2)CO1` [Example 38, 4-[4-(morpholin-4-yl)piperidin-1-yl]-8,14-dioxa-10,19,20-triazatetracyclo[13.5.2.1^2,6.0^18,21]tricosa-1(20),2,4,6(23),15,17,21-heptaen-9-one]: the IC50 was < 10 nM.

As to `CN1CC=C(c2cc3cc(c2)-c2n[nH]c4ccc(cc24)OCCCNC(=O)OC3)CC1` [Example 39, 4-(1-methyl-1,2,3,6-tetrahydropyridin-4-yl)-8,14-dioxa-10,19,20-triazatetra cyclo[13.5.2.1^2,6.0^18,21]tricosa-1(20),2,4,6(23),15,17,21-heptaen-9-one], the IC50 was < 10 nM.

On to `O=C1NCCCOc2ccc3[nH]nc(c3c2)-c2cc(cc(N3C[C@@H]4C[C@H]3CO4)c2)CO1` [Example 40], for which the IC50 is < 10 nM.

In the case of `O=C1NCCCOc2ccc3[nH]nc(c3c2)-c2cc(cc(CN3CCOCC3)c2)CO1` [Example 41, 4-[(morpholin-4-yl)methyl]-8,14-dioxa-10,19,20-triazatetracyclo[13.5.2.1^2,6.0^18,21]tricosa-1(20),2,4,6(23),15,17,21-heptaen-9-one], the half-inhibitory concentration (IC50) is < 10 nM.

With `O=C1NCCCOc2ccc3[nH]nc(c3c2)-c2cc(cc(CN3CCCC3)c2)CO1` [Example 42, 4-[(pyrrolidin-1-yl)methyl]-8,14-dioxa-10,19,20-triazatetracyclo[13.5.2.1^2,6.0^18,21]tricosa-1(20),2,4,6(23),15,17,21-heptaen-9-one], the IC50 was < 10 nM.

In the case of `O=C1NCCCOc2ccc3[nH]nc(c3c2)-c2cc(cc(CN3CCCCC3)c2)CO1` [Example 43], the IC50 was in the range of 10 to 100 nM.

As for `CN1CCN(Cc2cc3cc(c2)-c2n[nH]c4ccc(cc24)OCCCNC(=O)OC3)CC1` [Example 44, 4-[(4-methylpiperazin-1-yl)methyl]-8,14-dioxa-10,19,20-triazatetracyclo[13.5.2.1^2,6.0^18,21]tricosa-1(20),2,4,6(23),15,17,21-heptaen-9-one], the IC50 is < 10 nM.

Turning to `O=C1NCCCOc2ccc3[nH]nc(c3c2)-c2ccc(N3CCOCC3)c(c2)CO1` [Example 45, 5-(morpholin-4-yl)-8,14-dioxa-10,19,20-triazatetracyclo[13.5.2.1^2,6.0^18,21]tricosa-1(20),2,4,6(23),15,17,21-heptaen-9-one], the IC50 is < 10 nM.

Take `COCCN1CCN(c2cc3cc(c2)-c2n[nH]c4ccc(cc24)OCCCNC(=O)OC3)CC1` [Example 46, 4-[4-(2-methoxyethyl)piperazin-1-yl]-8,14-dioxa-10,19,20-triazatetracyclo[13.5.2.1^2,6.0^18,21]tricosa-1(20),2,4,6(23),15,17,21-heptaen-9-one]: the IC50 was < 10 nM.

On to `CCN(CC)c1cc2cc(c1)-c1n[nH]c3ccc(cc13)OCCCNC(=O)OC2` [Example 47, 4-(diethylamino)-8,14-dioxa-10,19,20-triazatetracyclo[13.5.2.1^2,6.0^18,21]tricosa-1(20),2,4,6(23),15,17,21-heptaen-9-one], for which the IC50 is < 10 nM.

For `O=C1NCCCOc2ccc3[nH]nc(c3c2)-c2cc(cc(C3CC3)c2)CO1` [Example 48, 4-cyclopropyl-8,14-dioxa-10,19,20-triazatetracyclo[13.5.2.1^2,6.0^18,21]tricosa-1(20),2,4,6(23),15,17,21-heptaen-9-one], the IC50 is < 10 nM.

For the molecule `CN1CCN(c2ccc3cc2COC(=O)NCCCOc2ccc4[nH]nc-3c4c2)CC1` [Example 49, 5-(4-methylpiperazin-1-yl)-8,14-dioxa-10,19,20-triazatetracyclo[13.5.2.1^2,6.0^18,21]tricosa-1(20),2,4,6(23),15,17,21-heptaen-9-one], the IC50 is 10 to 100 nM.

Consider `CC1CCNC(=O)OCc2cccc(c2)-c2n[nH]c3ccc(cc23)O1` (centres unmarked) [Example 50, 13-methyl-8,14-dioxa-10,19,20-triazatetracyclo[13.5.2.1^2,6.0^18,21]tricosa-1(20),2,4,6(23),15,17,21-heptaen-9-one], for which the IC50 is < 10 nM.
